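Cells were grown in 96-well plates and exposed to each compound for 48 hours at five concentrations; endpoints were interpolated linearly between bracketing concentrations, or set to the highest concentration if not reached. Definition used: TGI = concentration required for complete inhibition of growth.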
Legend:
Test in all cases: growth of human tumour cells (NCI), 48 h
[1] = system: SF-268 CNS
[2] = system: OVCAR-3 ovarian
[3] = system: PC-3 prostate
[4] = system: SK-OV-3 ovarian
[5] = system: UACC-257 melanoma
[6] = system: SNB-75 CNS
[7] = system: LOX IMVI melanoma
[8] = system: TK-10 renal
[9] = system: 786-0 renal
[10] = system: SK-MEL-5 melanoma

Structure (SMILES) | TGI [1] | TGI [2] | TGI [3] | TGI [4] | TGI [5] | TGI [6] | TGI [7] | TGI [8] | TGI [9] | TGI [10]
CCOC(=O)c1ccc(C(=O)/C(C(C)=O)=C2\CCCN2C)n1C | > 100 µM | > 100 µM | > 100 µM | > 100 µM | > 100 µM | 66.6 µM | > 100 µM | > 100 µM | > 100 µM | > 100 µM
CN1C(=O)[C@@H]2[C@@H]3c4ccccc4N(S(=O)(=O)C(F)(F)F)[C@@H]3c3[nH]c4ccccc4c3[C@@H]2C1=O | > 100 µM | > 100 µM | > 100 µM | > 100 µM | > 100 µM | > 100 µM | > 100 µM | > 100 µM | > 100 µM | > 100 µM
Fc1ccc2nc3n(c2c1)C(c1c(Cl)cccc1Cl)SC3 (stereo not given) | > 100 µM | > 100 µM | > 100 µM | > 100 µM | > 100 µM | > 100 µM | > 100 µM | > 100 µM | > 100 µM | > 100 µM
COc1ccc(/C=C2\CCC(CNc3ccc(OC)cc3)C2=O)cc1 (stereo not given) | 34.1 µM | 31.6 µM | 37 µM | > 100 µM | 34.5 µM | 94.5 µM | 28 µM | 36 µM | 23.2 µM | 35.2 µM
O=C(/C=C/c1cc(O)c(O)cc1O)OCCc1ccccc1 | 38.6 µM | 15.7 µM | 34.2 µM | 74.8 µM | > 64.9 µM | > 100 µM | 32 µM | 17.6 µM | 18.6 µM | 38.4 µM
O=C/C=C/c1ccco1 | > 100 µM | > 100 µM | > 100 µM | > 100 µM | > 100 µM | > 100 µM | > 100 µM | > 100 µM | > 100 µM | > 100 µM
CCSc1cc(=O)n(C)c(=O)n1C | > 100 µM | > 100 µM | > 100 µM | > 100 µM | > 100 µM | > 100 µM | > 100 µM | > 100 µM | > 100 µM | > 100 µM
C#CC1(O)C(COP(=O)(O)OCC2OC(n3ccc(NCCCCCCCCCCCCCCCCCC)nc3=O)C(O)C2O)OC(n2ccc(N)nc2=O)C1O (stereo not given) | 38.1 µM | 62.1 µM | 31.7 µM | > 59.4 µM | 60.2 µM | 45.9 µM | 11.1 µM | 19.1 µM | > 100 µM | 26 µM
NC1CC2NC3CCCCC3NC2CC1N (stereo not given) | > 100 µM | > 100 µM | > 100 µM | > 100 µM | > 100 µM | > 100 µM | > 100 µM | > 100 µM | > 100 µM | 67.3 µM
CCCCCCCCCCCCCC[S+](C)C | 3.99 µM | 4.03 µM | 2.98 µM | > 10 µM | 6.99 µM | 3.51 µM | 4.34 µM | 3.75 µM | 2.61 µM | 2.97 µM
CCOC(=O)C1OC(C2(C)OC3(OC4(C=CC3O)OC(C(C)C(=O)C(C)C(O)C(C)CC(C)c3c(Cl)cc(C)c(O)c3C(=O)O)C(C)CC4C)C(C)C2OC)CC1O (stereo not given) | 6.85 µM | 3.9 µM | 17.3 µM | 3.26 µM | 8.54 µM | 0.919 µM | 14.2 µM | 7.81 µM | 4.47 µM | 5.59 µM
Cc1ccc(OC2CC(n3cnc4ncnc(Cl)c43)OC2Oc2ccc(C)cc2)cc1 (stereo not given) | 50.1 µM | 33.9 µM | 36.3 µM | > 100 µM | > 100 µM | 69.1 µM | > 100 µM | > 100 µM | > 100 µM | 46.4 µM

— PubChem BioAssay (NCI)
